Patent US7732485B2, “Treatment of cancer” (The University of Manchester, priority 2003, dated 2010)
pIC50: −log10 of the molar value.

How the values were obtained:
[1] = test system: L1210; assay: Comet assay, DNA crosslinking; assay type: cell-based, murine; conditions: ratio >1 = more cross-linking in parental than in platinum-resistant line
Protocol: (§1) Preliminary studies have been carried out to investigate the mechanism underlying this increased sensitivity. These studies were carried out using the Comet assay (described in Appendix C), which measures damage to DNA. The results are shown in FIGS. 1 (cisplatinum), 2 (carboplatinum), 3 to 8 (compounds A-F) and 9 (phenylgoldtriphenylphospine, PAuP).
(§2) Table 3 illustrates the results of the following calculation using the DNA cross-linking results obtained in the Comet assays:
(§3) DNA damage was measured by the single cell gel electrophoresis (SCGE) assay or “Comet assay”, originally developed by Ostling and Johnson^8. This is a method for determining the extent of DNA damage and repair capacity within individual cells.^9-11 It has previously been shown that this technique can be used to investigate the mechanism of action of different DNA damaging agents.^12
(§4) Cells were trypsinised, suspended in 0.5 ml of ice cold fresh medium and transferred into plastic 24-well dishes prior to embedding in agarose. For the cross-linking studies treated and control samples were chilled on ice (to prevent any repair of DNA damage) and irradiated to a dose of 20 Gy in a Caesium-137 source (0.4 Gy/min). Control, (unirradiated, non-drug treated cells) were maintained on ice in the same manner as treated samples.
(§5) Glass microscope slides, frosted at one end, were pre-coated with 1% normal agarose in distilled water. These slides were allowed to air dry overnight prior to use. A 1% low melting point agarose (LMP) mixture in PBS was melted and held at 45° C. 1 ml of LMP was then added to 0.5 ml of cell suspension on ice and the resultant mixture was pipetted onto a pre-coated glass microscope slide and allowed to set for 1-2 minutes before being transferred to an ice tray. The slides were immersed in ice cold lysis solution (100 mM EDTA, 10 mM Tris-HCl, 1% Triton ×100, 1% DMSO, 2.5M NaCl) for 1 hr, and washed three times by immersion in fresh double distilled water for 15 minutes.
(§6) Slides were then placed onto a flat bed electrophoresis tank and covered (5-6 mm) with alkali unwinding solution (50 mM NaOH, 1 mM EDTA buffered to pH 12.5) and left under subdued lighting for 45 minutes to allow the DNA to unwind before being subjected to electrophoresis at 0.6V/cm for 25 minutes. Each slide was rinsed with 2×1 ml of 0.4M Tris-HCl, pH 8.0 and allowed to dry in air. The dried slides were then rehydrated for 20 minutes with double distilled water, 2×1 ml of propidium iodide solution (2.5 μg/ml) was added and staining was allowed to proceed for 15 minutes. Slides were then immersed in 1 litre of double distilled water for 1 hour to reduce excess background staining. The slides were cover slipped and then examined at 250× magnification under an epifluorescent microscope (Zeiss-Jenamed) using green light from a 50 watt mercury source with a 580 nm reflector and a 590 nm barrier filter set. Images were captured using an attached Sony HAD-1 interline CCD camera and Komet software analysis package (Kinetic Imaging). Twenty-five images from each of two duplicate slides were captured and analysed and the individual “comet moments” as defined by Olive et al^13, were calculated. The total fluorescence of the image represents the amount of DNA present and the length of the image, measured in pixels, represents the length of migration of the DNA. The head and tail areas of the image were identified and the intensity of each was determined. The tail moment is calculated by multiplying the fraction of DNA present in the tail by half the length of the tail.

[2] = test system: ccu24; assay: Comet assay, DNA crosslinking; assay type: cell-based, human; conditions: ratio >1 = more cross-linking in parental than in platinum-resistant line
Protocol: as §1, §2, §3, §4, §5, §6

[3] = test system: A2780mcp1; assay: Comet assay, DNA crosslinking; assay type: cell-based, human; conditions: ratio >1 = more cross-linking in parental than in platinum-resistant line
Protocol: as §1, §2, §3, §4, §5, §6

[4] = test system: A2780/mcp8; assay: Comet assay, DNA crosslinking; assay type: cell-based, human; conditions: ratio >1 = more cross-linking in parental than in platinum-resistant line
Protocol: as §1, §2, §3, §4, §5, §6

[5] = test system: A2780cis; assay: Comet assay, DNA crosslinking; assay type: cell-based, human; conditions: ratio >1 = more cross-linking in parental than in platinum-resistant line
Protocol: as §1, §2, §3, §4, §5, §6

[6] = test system: cor123; assay: Comet assay, DNA crosslinking; assay type: cell-based, human; conditions: ratio >1 = more cross-linking in parental than in platinum-resistant line
Protocol: as §1, §2, §3, §4, §5, §6

[7] = test system: A2780carb; assay: Comet assay, DNA crosslinking; assay type: cell-based, human; conditions: ratio >1 = more cross-linking in parental than in platinum-resistant line
Protocol: as §1, §2, §3, §4, §5, §6

[8] = test system: mcp1 cell line; assay: Growth inhibition assay (modified MTT); assay type: cell-based, human; conditions: five-day MTT
Protocol: (§7) The sensitivities of the cell lines to cisplatinum, carboplatinum, and compounds A-F were determined using a growth inhibition assay which was a modified version of the MTT method (modified version of MTT method described in Appendix B).
(§8) The following is a brief description of the eleven different cell lines used in the growth inhibition assay: • The A2780 cell line (1 in FIGS. 1-9) is a human ovarian cell line which is sensitive to cisplatinum and carboplatinum. […] The cor123/cpr (7) cell line is a modified version of the cor123 cell line which has been modified to be resistant to cisplatinum and carboplatinum. • The ccu24 (8) cell line is an epithelial ovarian cancer cell line, developed at the Christie Hospital from a tumour biopsy, and the ccu24/cpr (9) cell line is a modified version of this cell line which is cisplatinum and carboplatinum resistant. • L1210 (10) is a murine leukemia cell line and L1210/M1140 (11) is its platinum drug resistant subline.
(§9) The cell toxicity studies were performed using a modification of the method MTT.^7 The principle of the assay is to assess the growth inhibitory effect of a drug at various doses over a five-day time course. This assay was performed in 96-well microtitre plates. Cells were seeded at densities of 400-1,000 cells per well, depending on the doubling time of the cell line. All cell dilutions were performed in growth medium containing 10% FCS (foetal calf serum).
(§10) Compounds under investigation were dissolved in DMSO (dimethylsulphoxide). Serial dilutions of compound were made into the cell suspension, ensuring that the proportion of DMSO remained below 0.5%. 200 μl of cells and drug mix was added to the 96-well plates in triplicate. The plates were incubated for five days at 5% CO2 and 37° C. After this time, the plates were removed from the incubator and 50 μl of a 3 mg/ml solution of MTT [3-(4,5-dimethyl-thiazol-2-yl)-2,5-diphenyl tetrazolium bromide] was added to each well and incubated in the same conditions for another 3 hours. The medium from each well was aspirated and the formazan crystals were solubilised in 200 μl of DMSO. The plates were read using a Multiskan platereader at 540 nm and 690 nm. Growth inhibition curves were constructed using mean and standard deviation of the triplicate absorbance values and from these curves the IC50 values were calculated.

[9] = test system: mcp8 cell line; assay: Growth inhibition assay (modified MTT); assay type: cell-based, human; conditions: five-day MTT
Protocol: as §7, §8, §9, §10

[10] = test system: ccu24/cpr cell line; assay: Growth inhibition assay (modified MTT); assay type: cell-based, human; conditions: five-day MTT
Protocol: as §7, §8, §9, §10

[11] = test system: cor123 cell line; assay: Growth inhibition assay (modified MTT); assay type: cell-based, human; conditions: five-day MTT
Protocol: as §7, §8, §9, §10

[12] = test system: cor123/cpr cell line; assay: Growth inhibition assay (modified MTT); assay type: cell-based, human; conditions: five-day MTT
Protocol: as §7, §8, §9, §10

[13] = test system: A2780carb cell line; assay: Growth inhibition assay (modified MTT); assay type: cell-based, human; conditions: for pIC50: A2780carb, five-day MTT
Protocol: as §7, §8, §9, §10

[14] = test system: A2780cis cell line; assay: Growth inhibition assay (modified MTT); assay type: cell-based, human; conditions: for pIC50: A2780cis, five-day MTT
Protocol: as §7, §8, §9, §10

[15] = test system: ccu24 cell line; assay: Growth inhibition assay (modified MTT); assay type: cell-based, human; conditions: five-day MTT
Protocol: as §7, §8, §9, §10

[16] = test system: A2780-S cell line; assay: Growth inhibition assay (modified MTT); assay type: cell-based, human; conditions: five-day MTT
Protocol: as §7, §8, §9, §10

[17] = test system: L1210/M1140 cell line; assay: Growth inhibition assay (modified MTT); assay type: cell-based, murine; conditions: five-day MTT
Protocol: as §7, §8, §9, §10

[18] = test system: L1210 cell line; assay: Growth inhibition assay (modified MTT); assay type: cell-based, murine; conditions: five-day MTT
Protocol: as §7, §8, §9, §10

[19] = Table 1, first series of assays, mcp1
[20] = Table 2, further series of assays, A2780/mcp1
[21] = Table 1, first series of assays, mcp8
[22] = Table 2, further series of assays, A2780/mcp8
[23] = Table 1, first series of assays
[24] = Table 2, further series of assays

Compound | DNA crosslinking (Comet) ratio [1] | DNA crosslinking (Comet) ratio [2] | DNA crosslinking (Comet) ratio [3] | DNA crosslinking (Comet) ratio [4] | DNA crosslinking (Comet) ratio [5] | DNA crosslinking (Comet) ratio [6] | DNA crosslinking (Comet) ratio [7] | pIC50 [8, 19] | pIC50 [8, 20] | pIC50 [9, 21] | pIC50 [9, 22] | pIC50 [10, 23] | pIC50 [10, 24] | pIC50 [11, 23] | pIC50 [11, 24] | pIC50 [12, 23] | pIC50 [12, 24] | pIC50 [13, 23] | pIC50 [13, 24] | pIC50 [14, 23] | other results
c1ccc([PH]([Au][CH2]c2cc[c]([Au][PH](c3ccccc3)(c3ccccc3)c3ccccc3)cc2)(c2ccccc2)c2ccccc2)cc1 [D] | 0.63 | 0.47 | 0.48 | 0.50 | 0.54 | 0.62 | 0.63 | 8.08 | 7.71 | 8.17 | 7.83 | 7.90 | 7.81 | 7.65 | 7.60 | 7.80 | 7.71 | 7.99 | 7.87 | 8.14 | pIC50 [14, 24]: 7.99; pIC50 [15, 23]: 7.44; pIC50 [15, 24]: 7.40; pIC50 [16, 23]: 7.49; pIC50 [16, 24]: 7.44; pIC50 [17, 23]: 7.76; pIC50 [17, 24]: 7.69; pIC50 [18, 23]: 7.31; pIC50 [18, 24]: 7.30
c1ccc([PH]([Au][c]2cc[c]([Au][PH](c3ccccc3)(c3ccccc3)c3ccccc3)cc2)(c2ccccc2)c2ccccc2)cc1 [A, 1,4-bis-(triphenylphospinogold(I))benzene] | 0.69 | 0.40 | 0.59 | 0.60 | 0.50 | 0.56 | 0.53 | 9.30 | 8.46 | 9.22 | 8.34 | 8.44 | 8.19 | 7.71 | 7.65 | 8.82 | 8.35 | 9.22 | 9.05 | 9.70 | sensitivity of A2780carb relative to parental A2780-S line ([13]; from IC50 0.6 nM vs 13.4 nM): over twenty-times more sensitive; pIC50 [14, 24]: 9.30; sensitivity of A2780cis relative to parental A2780-S line ([14]; from IC50 0.2 nM vs 13.4 nM): over sixty-times more sensitive; pIC50 [15, 23]: 7.60; pIC50 [15, 24]: 7.55; pIC50 [16, 23]: 7.87; pIC50 [16, 24]: 7.78; pIC50 [17, 23]: 8.19; pIC50 [17, 24]: 8.04; pIC50 [18, 23]: 7.42; pIC50 [18, 24]: 7.38
c1ccc([PH]([Au][c]2cccc[c]2[Au][PH](c2ccccc2)(c2ccccc2)c2ccccc2)(c2ccccc2)c2ccccc2)cc1 [Compound C] | 0.71 | 0.37 | 0.38 | 0.41 | 0.36 | 0.38 | 0.36 | 9.30 | 8.46 | 9.30 | 8.34 | 8.48 | 8.20 | 7.84 | 7.75 | 8.85 | 8.36 | 9.30 | 9.10 | 9.52 | pIC50 [14, 24]: 9.22; pIC50 [15, 23]: 7.69; pIC50 [15, 24]: 7.63; pIC50 [16, 23]: 7.89; pIC50 [16, 24]: 7.82; pIC50 [17, 23]: 8.28; pIC50 [17, 24]: 8.08; pIC50 [18, 23]: 7.37; pIC50 [18, 24]: 7.34
c1ccc([PH]([Au][CH2]c2cccc[c]2[Au][PH](c2ccccc2)(c2ccccc2)c2ccccc2)(c2ccccc2)c2ccccc2)cc1 [F] | 0.53 | 0.60 | 0.54 | 0.56 | 0.52 | 0.62 | 0.61 | 8.20 | 7.98 | 8.28 | 7.94 | 8.02 | 7.91 | 7.55 | 7.51 | 7.94 | 7.84 | 8.14 | 7.98 | 8.27 | pIC50 [14, 24]: 8.08; pIC50 [15, 23]: 7.66; pIC50 [15, 24]: 7.58; pIC50 [16, 23]: 7.69; pIC50 [16, 24]: 7.61; pIC50 [17, 23]: 7.94; pIC50 [17, 24]: 7.84; pIC50 [18, 23]: 7.55; pIC50 [18, 24]: 7.51
[Au(η2-C6H4CH═NC6H5)Cl2] [Au (III), reference compound] | 0.54 | 0.78 | 0.72 | 0.69 | 0.67 | 0.83 | 0.71 | – | – | – | – | – | – | – | – | – | – | – | – | – | –
